Source: the NIST ThermoML archive (doi:10.1021/je050455+)
Numbers after ± are expanded uncertainties.

Conditions: 293.15 K; 101.33 kPa; Liquid; Vibrating tube method

| mass density | Structure (SMILES) |
| --- | --- |
| 1360 ± 20 kg/m3 | Cc1n(CCO)cc[n+]1C.F[B-](F)(F)F [1-(2-hydroxyethyl)-2,3-dimethylimidazolium tetrafluoroborate] |
| 1330 ± 20 kg/m3 | C[n+]1ccn(CCO)c1.F[B-](F)(F)F [1-(2-hydroxyethyl)-3-methylimidazolium tetrafluoroborate] |
